Counter-ions that a name gives are not always drawn.

The test system of one series is rLUJV/ZsG. In words: microbe, parasite or virus in culture. The settings on record: Mammarenavirus lujoense, Huh-7, read-out: Relative ZsG (%) Mean; for activity at 0.05 µM: 50 nM; for activity at 0.5 µM: 500 nM; for activity at 5 µM: 5000 nM. The class given is cell-based, Lujo virus.
The nature of the next series: in vitro. The settings on record: human.

Turning to `Cc1ccc(NC(=O)c2ccc(CN3CCN(C)CC3)cc2)cc1Nc1nccc(-c2cccnc2)n1` [Gleevec], in the series with rLUJV/ZsG, the activity at 0.05 µM turned out to be 95%, the activity at 0.5 µM was 113% and the activity at 5 µM was found to be 56%. Besides, in “in vitro”, the viability at 0.05 µM was 101%, the viability at 0.5 µM turned out to be 96% and the viability at 5 µM came to 96%.
Turning to `Clc1ccc(CSC(Cn2ccnc2)c2ccc(Cl)cc2Cl)cc1` (stereo not drawn) [Sulconazole nitrate], in the series on rLUJV/ZsG, the activity at 0.05 µM came out at 86%, the activity at 0.5 µM was 66% and the activity at 5 µM was found to be 42%. Also, in the series “in vitro”, the viability at 0.05 µM is 132%, the viability at 0.5 µM was determined as 131% and the viability at 5 µM was found to be 52%.
With `CO[C@@H]1[C@H](O)[C@@H](CO)O[C@H]1n1ccc(=O)[nH]c1=O` [2ʹ-O-methyluridine], in the series with rLUJV/ZsG, the activity at 0.05 µM is 122%, the activity at 0.5 µM stood at 130% and the activity at 5 µM was 110%. Moreover, in “in vitro”, the viability at 0.05 µM stood at 97%, the viability at 0.5 µM came to 100% and the viability at 5 µM was 96%.
For `CN(C)CCCN1c2ccccc2CCc2ccc(Cl)cc21` [Clomipramine HCL], in the series on rLUJV/ZsG, the activity at 0.05 µM was determined as 129%, the activity at 0.5 µM came to 103% and the activity at 5 µM turned out to be 12%. In the series “in vitro”, the viability at 0.05 µM is 97%, the viability at 0.5 µM was 97% and the viability at 5 µM is 98%.
Regarding `Nc1ncnc2c([C@@H]3N[C@H](CO)[C@@H](O)[C@H]3O)c[nH]c12` [BCX-4430], in the series on rLUJV/ZsG, the activity at 0.05 µM amounted to 103%, the activity at 0.5 µM stood at 132% and the activity at 5 µM was found to be 99%. In the series “in vitro”, the viability at 0.05 µM was 99%, the viability at 0.5 µM came to 97% and the viability at 5 µM was determined as 101%.
As for `Nc1ncn([C@@H]2O[C@H](CO)[C@@H](O)[C@H]2O)c(=O)n1` [5-azacytidine], in the series on rLUJV/ZsG, the activity at 0.05 µM is 90%, the activity at 0.5 µM was found to be 112% and the activity at 5 µM was determined as 104%. In the series “in vitro”, the viability at 0.05 µM was found to be 96%, the viability at 0.5 µM stood at 102% and the viability at 5 µM was found to be 102%.
For `COc1cc2ncnc(Nc3ccc(F)c(Cl)c3)c2cc1OCCCN1CCOCC1` [Gefitinib], in the series with rLUJV/ZsG, the activity at 0.05 µM stood at 77%, the activity at 0.5 µM turned out to be 71% and the activity at 5 µM is 48%. Further, in the series “in vitro”, the viability at 0.05 µM was found to be 128%, the viability at 0.5 µM is 121% and the viability at 5 µM amounted to 101%.
Take `CN[C@H]1CC[C@@H](c2ccc(Cl)c(Cl)c2)c2ccccc21` [Sertraline]: in the series with rLUJV/ZsG, the activity at 0.05 µM was found to be 80%, the activity at 0.5 µM was 69% and the activity at 5 µM was 35%. In “in vitro”, the viability at 0.05 µM is 122%, the viability at 0.5 µM was 128% and the viability at 5 µM was 107%.
Turning to `C[C@@]1(O)[C@H](O)[C@@H](CO)O[C@H]1n1ccc(N)nc1=O` [2ʹ-C-methylcytidine], in the series with rLUJV/ZsG, the activity at 0.05 µM was 124%, the activity at 0.5 µM amounted to 144% and the activity at 5 µM turned out to be 103%. Also, in “in vitro”, the viability at 0.05 µM amounted to 102%, the viability at 0.5 µM came to 104% and the viability at 5 µM was 99%.
As for `[N-]=[N+]=Nc1nc2c(N)ncnc2n1[C@@H]1O[C@H](CO)[C@@H](O)[C@H]1O` [8-azidoadenosine], in the series on rLUJV/ZsG, the activity at 0.05 µM was found to be 90%, the activity at 0.5 µM was found to be 72% and the activity at 5 µM is 6%. Moreover, in the series “in vitro”, the viability at 0.05 µM was 104%, the viability at 0.5 µM came out at 87% and the viability at 5 µM was 32%.
With `O=c1[nH]c(=O)n([C@@H]2O[C@H](CO)[C@@H](O)[C@H]2O)cc1Cl` [5-chlorouridine], in the series with rLUJV/ZsG, the activity at 0.05 µM came to 122%, the activity at 0.5 µM is 142% and the activity at 5 µM turned out to be 103%. Moreover, in “in vitro”, the viability at 0.05 µM was found to be 100%, the viability at 0.5 µM was found to be 103% and the viability at 5 µM came to 99%.
In the case of `O=c1c(-c2ccc(O)cc2)coc2cc(O)cc(O)c12` [Genistein], in the series on rLUJV/ZsG, the activity at 0.05 µM came to 83%, the activity at 0.5 µM worked out at 68% and the activity at 5 µM was determined as 92%. For the same compound, in the series “in vitro”, the viability at 0.05 µM turned out to be 123%, the viability at 0.5 µM was 111% and the viability at 5 µM was determined as 106%.
Take `OC(CNCC(O)C1CCc2cc(F)ccc2O1)C1CCc2cc(F)ccc2O1` (stereo not drawn) [Nebivolol]: in the series with rLUJV/ZsG, the activity at 0.05 µM worked out at 76%, the activity at 0.5 µM was 58% and the activity at 5 µM stood at 18%. Further, in “in vitro”, the viability at 0.05 µM amounted to 110%, the viability at 0.5 µM was found to be 108% and the viability at 5 µM came to 76%.
In the case of `COC(=O)C1=C(C)NC(C)=C(C(=O)OC2CCCN(Cc3ccccc3)C2)C1c1cccc([N+](=O)[O-])c1` (stereo not drawn) [Benidipine], in the series on rLUJV/ZsG, the activity at 0.05 µM was found to be 90%, the activity at 0.5 µM came to 81% and the activity at 5 µM came to 61%. In the series “in vitro”, the viability at 0.05 µM was determined as 126%, the viability at 0.5 µM was 129% and the viability at 5 µM worked out at 107%.
As to `CC(C)(C)c1nc(-c2cccc(NS(=O)(=O)c3c(F)cccc3F)c2F)c(-c2ccnc(N)n2)s1` [Dabrafenib], in the series on rLUJV/ZsG, the activity at 0.05 µM worked out at 87%, the activity at 0.5 µM worked out at 79% and the activity at 5 µM stood at 22%. For the same compound, in the series “in vitro”, the viability at 0.05 µM is 119%, the viability at 0.5 µM stood at 117% and the viability at 5 µM is 68%.
Take `[N-]=[N+]=Nc1cn([C@@H]2O[C@H](CO)[C@@H](O)[C@H]2O)c(=O)[nH]c1=O` [5-azidouridine]: in the series on rLUJV/ZsG, the activity at 0.05 µM is 121%, the activity at 0.5 µM stood at 119% and the activity at 5 µM came out at 113%. Besides, in “in vitro”, the viability at 0.05 µM was 104%, the viability at 0.5 µM was 100% and the viability at 5 µM was 104%.
Consider `Nc1nc(Cl)nc2c1ncn2[C@@H]1O[C@H](CO)[C@@H](O)[C@H]1O` [2-chloroadenosine], for which, in the series with rLUJV/ZsG, the activity at 0.05 µM was 124%, the activity at 0.5 µM is 133% and the activity at 5 µM amounted to 99%. In addition, in “in vitro”, the viability at 0.05 µM was found to be 98%, the viability at 0.5 µM came out at 105% and the viability at 5 µM amounted to 103%.
On to `Nc1ncnc2c1nnn2[C@@H]1O[C@H](CO)[C@@H](O)[C@H]1O` [8-azaadenosine], for which, in the series with rLUJV/ZsG, the activity at 0.05 µM is 118%, the activity at 0.5 µM turned out to be 121% and the activity at 5 µM turned out to be 6%. In the series “in vitro”, the viability at 0.05 µM came out at 98%, the viability at 0.5 µM was 103% and the viability at 5 µM was 47%.
For the compound `COc1ccc(-c2ccc3c(N4CCOC[C@@H]4C)nc(N4CCOC[C@@H]4C)nc3n2)cc1CO` [AZD8055], in the series with rLUJV/ZsG, the activity at 0.05 µM amounted to 48%, the activity at 0.5 µM amounted to 7% and the activity at 5 µM was determined as 3%. Also, in “in vitro”, the viability at 0.05 µM came out at 86%, the viability at 0.5 µM came out at 52% and the viability at 5 µM worked out at 45%.
`Cc1c(F)cc(C(=O)NC2CC2)cc1-c1ccc(C(=O)NCC(C)(C)C)cn1` [Losmapimod]: in the series with rLUJV/ZsG, the activity at 0.05 µM is 60%, the activity at 0.5 µM was determined as 70% and the activity at 5 µM worked out at 63%. Also, in “in vitro”, the viability at 0.05 µM is 113%, the viability at 0.5 µM was found to be 115% and the viability at 5 µM came to 114%.

As a reminder, the viability is a read-out of living cells in per cent, often relative to untreated cells.

These data come from publication PMC8310135 (Viruses, 2021).
